Where only a bound is given, the exact number is not on record here.

Results on 19 compounds are retold here after US20250206757A1 (GASHERBRUM BIO, INC., priority 2022, published 2025).

The target of this assay is GLP-1 Receptor (Homo sapiens, UniProt P43220). In words: GLP-1R agonist cAMP stimulation assay (HEK293/GLP1R/CRE-LUC cells, HTRF cAMP dynamic 2 kit). In kind it is cell-based. The following applies: HEK293/CRE-Luc cell line stably expressing the GLP-1 Receptor; 30 min incubation at 37° C. On the procedure: Activation of GLP-1 receptor is known to stimulate cyclic AMP (cAMP) production in cells which indicates primary coupling to the Gas subunit of the G protein heterotrimeric complex.
GLP-1 Receptor, sequence (P43220 24-463): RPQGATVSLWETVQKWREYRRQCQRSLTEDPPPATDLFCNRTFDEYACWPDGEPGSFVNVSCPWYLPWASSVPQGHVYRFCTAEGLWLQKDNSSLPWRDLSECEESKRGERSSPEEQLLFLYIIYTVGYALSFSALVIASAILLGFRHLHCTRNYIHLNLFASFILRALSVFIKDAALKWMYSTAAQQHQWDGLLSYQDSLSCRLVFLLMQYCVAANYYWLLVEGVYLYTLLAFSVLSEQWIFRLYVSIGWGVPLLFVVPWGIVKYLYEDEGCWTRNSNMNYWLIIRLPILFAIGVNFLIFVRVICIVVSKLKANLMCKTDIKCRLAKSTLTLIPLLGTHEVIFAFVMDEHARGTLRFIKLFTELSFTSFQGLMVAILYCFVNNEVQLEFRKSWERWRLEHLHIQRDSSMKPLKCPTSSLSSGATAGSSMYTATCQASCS
To optimize functional activity directed toward Gas coupling, a HEK293/CRE-Luc cell line developed by HDB stably expressing the GLP-1 Receptor was used. 200× concentration of compound working solutions were prepared (Agilent Technologies Bravo) with 1/2 log serial dilution in 384-well Echo LDV plate (Labcyte, Cat #LP-0200). 50 nL/well 200× concentration of compound working solutions were moved to 384-well white low volume plate (Greiner, Cat #784075) using Labcyte ECHO550. 1×10^5 cells/mL HEK293/GLP1R/CRE-LUC (HD Biosciences) cell suspensions prepared with assay buffer [DPBS containing 0.5 mM IBMX (Sigma, Cat #15879) and 0.10% BSA (GENVIEW, Cat #FA016-100g)], 10 μL cell suspensions were added to each well of previous generated assay plate which already contains 50 nL compound at 200× concentration using ThermoFisher Multidrop Combi (1000 cells/well). Seal the plate and incubate at 37° C. with 5% CO2 for 30 min.
After incubation the cAMP assay signal was generated using cAMP dynamic 2 Kit (Cisbio). 5 μL cAMP-d2 working solution was added to each well, followed with 5 μL Anti-cAMP antibody-cryptate working solution added to each well using ThermoFisher Multidrop Combi. Incubate at room temperature for 1 hour protected from light. Read the fluorescence at 665 and 615 nm with Reader PerkinElmer EnVision.
Usually EC50 stands for the concentration needed to bring the measured effect to its halfway point. Low readings indicate higher potency in that assay, high ones lower potency in that assay. `COC(C)Cn1c(CN2CCc3cc(C(F)(F)F)c(OCc4ccc(Cl)cc4F)nc3C2)nc2cc(-c3nnc(C(F)(F)F)[nH]3)ncc21` (stereo in doubt) [Compound 81, 2-[(4-chloro-2-fluorophenyl)methoxy]-7-({3-[(2S)-2-methoxypropyl]-6-[5-(trifluoromethyl)-4H-1,2,4-triazol-3-yl]-3H-imidazo[4,5-c]pyridin-2-yl}methyl)-3-(trifluoromethyl)-5,6,7,8-tetrahydro-1,7-naphthyridine]: the EC50 lay in the range of 1 to 300 nM.
`O=c1[nH]c(-c2cnc3c(c2)nc(CN2CCc4ccc(OCc5ccc(Cl)cc5F)nc4C2)n3C[C@@H]2CCO2)no1` [Compound 1, (S)-3-(2-((2-((4-chloro-2-fluorobenzyl)oxy)-5,8-dihydro-1,7-naphthyridin-7(6H)-yl)methyl)-3-(oxetan-2-ylmethyl)-3H-imidazo[4,5-b]pyridin-6-yl)-1,2,4-oxadiazol-5(4H)-one] had an EC50 of 1 to 300 nM.
`O=c1[nH]c(-c2ccc3nc(CN4CCc5ccc(OCc6ccc(Cl)cc6F)nc5C4)n(C[C@@H]4CCO4)c3c2)no1` [Compound 2, (S)-3-(2-((2-((4-chloro-2-fluorobenzyl)oxy)-5,8-dihydro-1,7-naphthyridin-7(6H)-yl)methyl)-1-(oxetan-2-ylmethyl)-1H-benzo[d]imidazol-6-yl)-1,2,4-oxadiazol-5(4H)-one] registered an EC50 of 1 to 300 nM.
In turn, `Fc1cc(Cl)ccc1COc1nc2c(cc1C1CC1)CCN(Cc1nc3cc(-c4nnc(C(F)(F)F)[nH]4)cnc3n1C[C@@H]1CCO1)C2` [Compound 3, 2-[(4-chloro-2-fluorophenyl)methoxy]-3-cyclopropyl-7-[(3-{[(2S)-oxetan-2-yl]methyl}-6-[5-(trifluoromethyl)-4H-1,2,4-triazol-3-yl]-3H-imidazo[4,5-b]pyridin-2-yl)methyl]-5,6,7,8-tetrahydro-1,7-naphthyridine] showed an EC50 of 1 to 300 nM.
As for `Fc1cc(Cl)ccc1COc1nc2c(cc1C(F)(F)F)CCN(Cc1nc3cc(-c4nnc(C(F)(F)F)[nH]4)ncc3n1C[C@@H]1CCO1)C2` [Compound 4, 2-[(4-chloro-2-fluorophenyl)methoxy]-7-[(3-{[(2S)-oxetan-2-yl]methyl}-6-[5-(trifluoromethyl)-4H-1,2,4-triazol-3-yl]-3H-imidazo[4,5-c]pyridin-2-yl)methyl]-3-(trifluoromethyl)-5,6,7,8-tetrahydro-1,7-naphthyridine], the EC50 is below 1 nM.
`Fc1cc(Cl)ccc1COc1nc2c(cc1Cl)CCN(Cc1nc3cc(-c4nnc(C(F)(F)F)[nH]4)ncc3n1C[C@@H]1CCO1)C2` [Compound 5, 3-chloro-2-[(4-chloro-2-fluorophenyl)methoxy]-7-[(3-{1[(2S)-oxetan-2-yl]methyl}-6-[5-(trifluoromethyl)-4H-1,2,4-triazol-3-yl]-3H-imidazo[4,5-c]pyridin-2-yl)methyl]-5,6,7,8-tetrahydro-1,7-naphthyridine] displayed an EC50 below 1 nM.
In turn, `Fc1cc(Cl)ccc1COc1nc2c(cc1C(F)(F)F)CCN(Cc1nc3cc(-c4nnc(C(F)(F)F)[nH]4)nnc3n1C[C@@H]1CCO1)C2` [Compound 6, 2-[(4-chloro-2-fluorophenyl)methoxy]-7-[(7-{[(2S)-oxetan-2-yl]methyl}-3-[5-(trifluoromethyl)-4H-1,2,4-triazol-3-yl]-7H-imidazo[4,5-c]pyridazin-6-yl)methyl]-3-(trifluoromethyl)-5,6,7,8-tetrahydro-1,7-naphthyridine] registered an EC50 below 1 nM.
Then `Fc1cc(Cl)ccc1COc1nc2c(cc1Cl)CCN(Cc1nc3cc(-c4nnc(C(F)(F)F)[nH]4)nnc3n1C[C@@H]1CCO1)C2` [Compound 7, 3-chloro-2-[(4-chloro-2-fluorophenyl)methoxy]-7-[(7-{[(2S)-oxetan-2-yl]methyl}-3-[5-(trifluoromethyl)-4H-1,2,4-triazol-3-yl]-7H-imidazo[4,5-c]pyridazin-6-yl)methyl]-5,6,7,8-tetrahydro-1,7-naphthyridine], with below 1 nM.
Then `N#Cc1nnc(-c2cc3nc(CN4CCc5cc(Cl)c(OCc6ccc(Cl)cc6F)nc5C4)n(C[C@@H]4CCO4)c3cn2)[nH]1` [Compound 8, 5-[2-({3-chloro-2-[(4-chloro-2-fluorophenyl)methoxy]-5,6,7,8-tetrahydro-1,7-naphthyridin-7-yl}methyl)-3-{[(2S)-oxetan-2-yl]methyl}-3H-imidazo[4,5-c]pyridin-6-yl]-4H-1,2,4-triazole-3-carbonitrile], with below 1 nM; and `N#Cc1nnc(-c2cc3nc(CN4CCc5cc(Cl)c(OCc6c(F)cc(Cl)cc6F)nc5C4)n(C[C@@H]4CCO4)c3cn2)[nH]1` [Compound 9, 5-[2-({3-chloro-2-[(4-chloro-2,6-difluorophenyl)methoxy]-5,6,7,8-tetrahydro-1,7-naphthyridin-7-yl}methyl)-3-{[(2S)-oxetan-2-yl]methyl}-3H-imidazo[4,5-c]pyridin-6-yl]-4H-1,2,4-triazole-3-carbonitrile], with below 1 nM; and `N#CC1(Cc2cc(-c3nnc(C(F)(F)F)[nH]3)cnc2CN2CCc3cc(C(F)(F)F)c(OCc4ccc(Cl)cc4F)nc3C2)CC1` [Compound 10, 1-{[2-({2-[(4-chloro-2-fluorophenyl)methoxy]-3-(trifluoromethyl)-5,6,7,8-tetrahydro-1,7-naphthyridin-7-yl}methyl)-5-[5-(trifluoromethyl)-4H-1,2,4-triazol-3-yl]pyridin-3-yl]methyl}cyclopropane-1-carbonitrile], with 1 to 300 nM.
As to `N#CC1(Cc2cc(-c3nnc(C(F)(F)F)[nH]3)cnc2CN2CCc3cc(Cl)c(OCc4ccc(Cl)cc4F)nc3C2)CC1` [Compound 11, 1-{[2-({3-chloro-2-[(4-chloro-2-fluorophenyl)methoxy]-5,6,7,8-tetrahydro-1,7-naphthyridin-7-yl}methyl)-5-[5-(trifluoromethyl)-4H-1,2,4-triazol-3-yl]pyridin-3-yl]methyl}cyclopropane-1-carbonitrile], the EC50 is above 300 nM.
The figure for `Cc1cc(-c2nnc(C(F)(F)F)[nH]2)cnc1CN1CCc2cc(Cl)c(OCc3ccc(Cl)cc3F)nc2C1` [Compound 12, 3-chloro-2-[(4-chloro-2-fluorophenyl)methoxy]-7-({3-methyl-5-[5-(trifluoromethyl)-4H-1,2,4-triazol-3-yl]pyridin-2-yl}methyl)-5,6,7,8-tetrahydro-1,7-naphthyridine] is above 300 nM; for `Cc1cc(-c2nnc(C(F)(F)F)[nH]2)nnc1CN1CCc2cc(C(F)(F)F)c(OCc3ccc(Cl)cc3F)nc2C1` [Compound 13, 2-[(4-chloro-2-fluorophenyl)methoxy]-7-({4-methyl-6-[5-(trifluoromethyl)-4H-1,2,4-triazol-3-yl]pyridazin-3-yl}methyl)-3-(trifluoromethyl)-5,6,7,8-tetrahydro-1,7-naphthyridine] it is above 300 nM; for `Fc1cc(Cl)ccc1COc1nc2c(cc1C(F)(F)F)CCN(Cc1nc3cc(-c4nnn[nH]4)ncc3n1C[C@@H]1CCO1)C2` [Compound 14, 2-[(4-chloro-2-fluorophenyl)methoxy]-7-[(3-{[(2S)-oxetan-2-yl]methyl}-6-(1H-1,2,3,4-tetrazol-5-yl)-3H-imidazo[4,5-c]pyridin-2-yl)methyl]-3-(trifluoromethyl)-5,6,7,8-tetrahydro-1,7-naphthyridine] it is below 1 nM.
Regarding `Fc1cc(Cl)ccc1COc1nc2c(cc1C(F)(F)F)CCN(Cc1nc3cc(-c4nnn[nH]4)cnc3n1C[C@@H]1CCO1)C2` [Compound 15, 2-[(4-chloro-2-fluorophenyl)methoxy]-7-[(3-{[(2S)-oxetan-2-yl]methyl}-6-(1H-1,2,3,4-tetrazol-5-yl)-3H-imidazo[4,5-b]pyridin-2-yl)methyl]-3-(trifluoromethyl)-5,6,7,8-tetrahydro-1,7-naphthyridine], the EC50 is below 1 nM.
The compound `Fc1cc(Cl)ccc1COc1nc2c(cc1C(F)(F)F)CCN(Cc1nc3cc(-c4nnc(C(F)(F)F)[nH]4)cnc3n1C[C@@H]1CCO1)C2` [Compound 16, 2-[(4-chloro-2-fluorophenyl)methoxy]-7-[(3-{[(2S)-oxetan-2-yl]methyl}-6-[5-(trifluoromethyl)-4H-1,2,4-triazol-3-yl]-3H-imidazo[4,5-b]pyridin-2-yl)methyl]-3-(trifluoromethyl)-5,6,7,8-tetrahydro-1,7-naphthyridine] returned an EC50 below 1 nM.
For the compound `N#Cc1nnc(-c2cnc3c(c2)nc(CN2CCc4cc(C(F)(F)F)c(OCc5ccc(Cl)cc5F)nc4C2)n3C[C@@H]2CCO2)[nH]1` [Compound 17, 5-[2-({2-[(4-chloro-2-fluorophenyl)methoxy]-3-(trifluoromethyl)-5,6,7,8-tetrahydro-1,7-naphthyridin-7-yl}methyl)-3-{1[(2S)-oxetan-2-yl]methyl}-3H-imidazo[4,5-b]pyridin-6-yl]-4H-1,2,4-triazole-3-carbonitrile], the EC50 is below 1 nM.
In the case of `N#Cc1nnc(-c2cc3nc(CN4CCc5cc(C(F)(F)F)c(OCc6ccc(Cl)cc6F)nc5C4)n(C[C@@H]4CCO4)c3cn2)[nH]1` [Compound 20, 5-[2-({2-[(4-chloro-2-fluorophenyl)methoxy]-3-(trifluoromethyl)-5,6,7,8-tetrahydro-1,7-naphthyridin-7-yl}methyl)-3-{[(2S)-oxetan-2-yl]methyl}-3H-imidazo[4,5-c]pyridin-6-yl]-4H-1,2,4-triazole-3-carbonitrile], the EC50 was below 1 nM.
